Among the data in patent US10350199B2, “3-(1h-pyrrolo[2,3-b]pyridin-2-yl)-1h-indazoles and therapeutic uses thereof” (Samumed, LLC, priority 2015, dated 2019) are EC50 and inhibition values, retold here.

One may read the EC50 as the concentration that produces a half-maximal response. Higher therefore signals lower potency in that assay. For orientation: inhibition means the change of the read-out against control, counted positive when it falls.

Holding throughout (format): cell-based
Assay [1] deals with SW480 colon cancer cells. The assay is described as follows: Cell viability assay (CellTiter-Blue), SW480 cells, four days. Particulars: Homo sapiens; for EC50: 96 h, SW480 cell viability, four days, CellTiter-Blue; for inhibition at 10 µM: SW480, read-out: percent inhibition at 10 μM. The protocol:
Representative compounds were screened using the following assay procedure to assess the effect on cell viability as described below.
Approximately 2×10^3 SW480 colon cancer cells were seeded into each well and allowed to incubate in the presence or absence of compound for four days at 37° C./5% CO2. Eight replicates of DMSO-treated cells served as controls and cells treated with compound were performed in duplicate.
After incubation, 20 μL of CellTiter-Blue (Promega) was added to each well allowed to incubate for approximately 3 hours. This reagent was a buffered solution which contains resazurin, metabolically active cells were able to reduce rezarurin (blue) into resorufin (pink) which was highly fluorescent. This measured fluorescence was used as a readout for cell viability.

The subject of assay [2] is primary human fibroblasts derived from IPF patients (LL29 cells) treated with TGF-β1. Nature of the assay: Inhibition of the fibrotic process: αSMA staining in TGF-β1 treated LL29 fibroblasts. The note with it: Fibroblast; for EC50: 96 h, LL29 cells, TGF-β1 20 ng/mL, 4 days, % αSMA positive cells; for inhibition at 10 µM: read-out: percent inhibition at 10 μM. How it is done: Representative compounds were screened using primary human fibroblasts (derived from IPF patients) treated with TGF-β1 to determine their ability to inhibit the fibrotic process.
LL29 cells are plated at 1,500 cells/well in 80 μL/well F12 medium supplemented with 1% Fetal Bovine Serum. […] Wells treated with TGF-β1 and containing DMSO were used as controls. […] Following incubation for 4 days, SYTOX green nucleic acid stain (Life Technologies [Thermo Fisher Scientific]) was added to the wells at a final concentration of 1 μM and incubated at room temperature for 30 min.

The subject of assay [3] is Wnt activity (Sp5-Luc reporter, SW480 colon carcinoma cells). The assay is described as follows: Wnt activity screening assay, Sp5-Luc reporter gene in SW480 cells. Particulars: Homo sapiens; for inhibition at 10 µM: SW480, read-out: percent inhibition at 10 μM; for EC50: Sp5-Luc reporter, SW480 cells, overnight incubation. The source says:
The screening assay for Wnt activity is described as follows. Reporter cell lines can be generated by stably transducing cancer cell lines (e.g., colon cancer) or primary cells (e.g., IEC-6 intestinal cells) with a lentiviral construct that includes a Wnt-responsive promoter driving expression of the firefly luciferase gene.
SW480 colon carcinoma cells were transduced with a lentiviral vector expressing luciferase with a human Sp5 promoter consisting of a sequence of eight TCF/LEF binding sites. SW480 cells stably expressing the Sp5-Luc reporter gene and a hygromycin resistance gene were selected by treatment with 150 μg/mL of hygromycin for 7 days. These stably transduced SW480 cells were expanded in cell culture and used for all further screening activities. […] For Sp5-Luc reporter gene assays, the cells were plated at 4,000 cells/well in 384-well plates with medium containing 1% fetal bovine serum and incubated overnight at 37° C. and 5% CO2. Following incubation, 20 μl of BrightGlo luminescence reagent (Promega) was added to each well of the 384-well assay plates. The plates were placed on an orbital shaker for 2 min and then luminescence was quantified using the Envision (Perkin Elmer) plate reader. Readings were normalized to DMSO only treated cells, and normalized activities were utilized for EC50 calculations using the dose-response log (inhibitor) vs. response -variable slope (four parameters) nonlinear regression feature available in GraphPad Prism 5.0 (or Dotmatics).
Background: In a reporter assay the amount or activity of a reporter protein is the signal.

In assay [4] the test system is IL-6 (THP-1 human monocyte cell line). The assay is described as follows: IL-6 inhibition in LPS-stimulated THP-1 cells (HTRF). The note with it: for EC50: IL-6 inhibition, LPS-stimulated THP-1 cells, HTRF; for inhibition at 10 µM: THP-1, read-out: percentage in parentheses beside EC50 >10 (IL-6 inhibition). How it is done:
THP-1 cells were cultured in basal media with 1% FBS for 24 hours before the start of the assay. […] THP-1 cells were plated at 5000 cells/well in the 384-well plates and incubated at 37° C. for 2 h. 500 ng/mL of LPS was added after 2 hours and cells were incubated for another 22 hours at 37° C. Plates were spun in a centrifuge for 1 minute at […] and a mixture of anti-IL6 XL665, and anti-IL6 Cryptate diluted in reconstitution buffer (Cisbio Inc.) was added to each well. Following incubation for 3 hrs at room temperature, Homogeneous Time-Resolved Fluorescence (HTRF) was measured using the Envision (Perkin Elmer) at 665 nm and […]. The ratio of fluorescence at 665 nm to 620 nm was used as a readout for IL6 quantification. All samples were processed in duplicate. Readings were normalized to DMSO treated cells and normalized activities were utilized for EC50 calculations using the dose-response log (inhibitor) vs. response -variable slope (four parameters) nonlinear regression feature available in GraphPad Prism 5.0 (or Dotmatics).
On the technique in general: Time-resolved FRET reads energy transfer from a long-lived donor to a nearby acceptor.

Take `c1cc(N2CCCCC2)c2cc(-c3n[nH]c4ccc(-c5cncc(CNCC6CCCC6)c5)cc34)[nH]c2n1` [Compound 193, 1-Cyclopentyl-N-((5-(3-(4-(piperidin-1-yl)-1H-pyrrolo[2,3-b]pyridin-2-yl)-1H-indazol-5-yl)pyridin-3-yl)methyl)methanamine]: the EC50 in assay [1], in assay [2], in assay [3] and in assay [4] was more than 10 µM in each case. In addition, the inhibition at 10 µM in assay [1] came to 12.5%; in assay [2], 24.9%; in assay [3] it was 8%; in assay [4], 18%.

Turning to `FC1(F)CCN(Cc2cncc(-c3ccc4[nH]nc(-c5cc6c(N7CCCCC7)ccnc6[nH]5)c4c3)c2)C1` [Compound 194, 5-(5-((3,3-Difluoropyrrolidin-1-yl)methyl)pyridin-3-yl)-3-(4-(piperidin-1-yl)-1H-pyrrolo[2,3-b]pyridin-2-yl)-1H-indazole], the EC50 in assay [1] was more than 10 µM; in assay [2], 5.9 µM; in assay [3] it was more than 10 µM; in assay [4], more than 10 µM. Also, the inhibition at 10 µM in assay [1] worked out at 18.5%; in assay [3], 26.2%; in assay [4], 33%.

Regarding `c1cnc2[nH]c(-c3n[nH]c4ccc(-c5ccncc5)cc34)cc2c1` [Compound 270, 5-(Pyridin-4-yl)-3-(1H-pyrrolo[2,3-b]pyridin-2-yl)-1H-indazole], the concentration for a half-maximal effect (EC50) was more than 10 µM in assay [1], 6.52 µM in assay [2], more than 10 µM in assay [3] and more than 10 µM in assay [4]. The inhibition at 10 µM in assay [1] worked out at 15.2%; in assay [3], 45.7%; in assay [4], 48.3%.

Consider `c1ncc(-c2ccc3[nH]nc(-c4cc5c(-c6ccsc6)ccnc5[nH]4)c3c2)cn1` [Compound 307, 5-(Pyrimidin-5-yl)-3-(4-(thiophen-3-yl)-1H-pyrrolo[2,3-b]pyridin-2-yl)-1H-indazole], for which the EC50 in assay [1], in assay [2], in assay [3] and in assay [4] was more than 10 µM in each case. The inhibition at 10 µM stood at 0% in assay [1], 0% in assay [2], 6% in assay [3] and 45.5% in assay [4].

Regarding `CN(C)Cc1cncc(-c2ccc3[nH]nc(-c4cc5c(-c6ccoc6)ccnc5[nH]4)c3c2)c1` [Compound 321, 1-(5-(3-(4-(Furan-3-yl)-1H-pyrrolo[2,3-b]pyridin-2-yl)-1H-indazol-5-yl)pyridin-3-yl)-N,N-dimethylmethanamine], the EC50 in assay [1] was more than 10 µM; in assay [2], 1.37 µM; in assay [3] it was more than 10 µM; in assay [4], more than 10 µM. Also, the inhibition at 10 µM in assay [1] was 7.9%; in assay [3] it was 3.7%; in assay [4], 19%.

On to `c1ccc(-c2ccc3[nH]nc(-c4cc5c(-c6ccoc6)ccnc5[nH]4)c3c2)nc1` [Compound 336, 3-(4-(Furan-3-yl)-1H-pyrrolo[2,3-b]pyridin-2-yl)-5-(pyridin-2-yl)-1H-indazole], for which the half-maximal effective concentration (EC50) in assay [1], in assay [2], in assay [3] and in assay [4] was more than 10 µM each time. For the same molecule, the inhibition at 10 µM in assay [1] worked out at 0%; in assay [2] it was 0%; in assay [3], 11%; in assay [4], 45.1%.

As to `CC(C)CC(=O)Nc1cncc(-c2ccc3[nH]nc(-c4cc5c(-c6cccs6)ccnc5[nH]4)c3c2)c1` [Compound 338, 3-Methyl-N-(5-(3-(4-(thiophen-2-yl)-1H-pyrrolo[2,3-b]pyridin-2-yl)-1H-indazol-5-yl)pyridin-3-yl)butanamide], the EC50 in assay [1] was determined as 0.747 µM; in assay [2], 0.58 µM; in assay [3], 0.332 µM; in assay [4] it was 0.047 µM.
